≈ marks a conversion by molar mass, not a printed value.
Tests used:
[1] = test system: Rifampicin-resistant TB 261; assay: microbe, parasite or virus in culture; type: cell-based; details: Mycobacterium tuberculosis
[2] = test system: Isoniazide-resistant TB 242; assay: microbe, parasite or virus in culture; type: cell-based; details: Mycobacterium tuberculosis

SMILES | MIC [1] [µg/mL] | MIC [2] [µg/mL]
O=C(COc1ccc([N+](=O)[O-])c(F)c1)Nc1ccccc1[N+](=O)[O-] [Compound 3m, 2-(3-Fluoro-4-nitrophenoxy)-N-(2-nitrophenyl)acetamide] | 4 (≈ 11.9 µM) | 32 (≈ 95.5 µM)
COC(=O)COc1ccc(NC(=O)COc2ccc(C)cc2C)cc1 [I, methyl 2-(4-(2-(2,4-dimethylphenoxy)acetamido)phenoxy)acetate] | 4 (≈ 11.6 µM) | 16 (≈ 46.6 µM)
NNC(=O)c1ccncc1 [Isoniazide] | 0.125 (≈ 0.911 µM) | 0.5 (≈ 3.65 µM)
CO[C@H]1/C=C/O[C@@]2(C)Oc3c(C)c(O)c4c(O)c(c(/C=N/N5CCN(C)CC5)c(O)c4c3C2=O)NC(=O)/C(C)=C\C=C\[C@H](C)[C@H](O)[C@@H](C)[C@@H](O)[C@@H](C)[C@H](OC(C)=O)[C@@H]1C [Rifampicin] | > 32 | ≤ 0.25

Reference: PMC6268079, “Synthesis and Biological Evaluation of 2-(3-Fluoro-4-nitro phenoxy)-N-phenylacetamide Derivatives as Novel Potential Affordable Antitubercular Agents” (Molecules, 2012)
